Laboratory results as given in patent US7030287B2, “Method of decreasing nitrate nitrogen and volatile organic compound in soil and groundwater” (Matsushita Electric Industrial Co., Ltd., priority 2001, dated 2006).

experiment: Column experiment (Example 3): nitrate-polluted well water passed through column filled with material; conditions: well water (nitrate nitrogen 14 mg/L) after column, passing time 5.5 hours, 21° C.
From the text: FIG. 3 is a view showing the structure of a column experiment apparatus used for effecting the method of decreasing nitrate nitrogen and volatile organic compounds in Example 3. Here, the column is a vessel having a function of decreasing nitrate nitrogen and volatile organic compounds, and decreases nitrate nitrogen and volatile organic compounds by allowing groundwater such as well water and the like to pass. In Example 3, a resin column having a diameter of 28 cm and a height of 2 m was used.
Well water evacuated from a well 23 by a pump 24 flow into this column 21 through an introduction port 25 of the column 21. It is so constituted that well water which comes into with the experiment material 22 while rising in the column 21, is discharged from an outflow port 26 formed at the upper part of the column 21.
Column experiments were conducted as described below using the column experiment apparatus constituted as described above.
From already-provided well polluted with nitrate nitrogen (nitrate nitrogen concentration: 14 mg/L), well water was evacuated by a pump 24 and allowed to flow into the column 21. In Example 3, six resin columns having a diameter of 28 cm and a height of 2 m were used, and experiments were conducted on 12 kinds of experiment materials using the resin columns each twice.
In the examples, experiment materials of the present invention such as fatty acids and alcohols were filled in columns (column Nos. 1 to 8) and comparative materials of conventional technologies were filled in columns (column Nos. 9 to 12) for comparison, and the evacuated groundwater was passed through them. In these experiments, substantial filling heights of the experiment materials in the columns were all 1.8 m. The passing time of groundwater in the column was 5.5 hours, and the average environment temperature during the experiment period was 21° C.
The nitrate nitrogen concentration, ammonia nitrogen concentration and total carbon concentration of the well water after passing through the column 30 days after initiation of passing of well water which is experiment initiation were measured.

Row | Molecule | Nitrate nitrogen concentration after 30 days [mg/L]
1 | CCCCCCCCCCCCCCO [Myristyl alcohol] | 2.5
2 | Sorbitan monomyristate | 1.6
3 | OC[C@H]1O[C@@](CO)(O[C@H]2O[C@H](CO)[C@@H](O)[C@H](O)[C@H]2O)[C@@H](O)[C@@H]1O [Sucrose, reference compound] | 15.0
4 | CCCCCCCCCCCCCCCCCCCCCC(=O)O [Behenic acid] | 1.8
5 | CCCCCCCCCCCCCCCCCC(=O)OC [Methyl stearate] | 1.4

experiment: Well experiment in soil polluted with tetrachloroethylene (Example 8): analysis of water collected from the well; conditions: 30 kg added over 6 days, initial about 0.25 mg/L
Procedure: In the method of decreasing nitrate nitrogen and volatile organic compounds in Example 8, an experiment was conducted using a well provided in soil polluted with tetrachloroethylene.
It had been known by previous investigation that about 125 m^2 of the surface of soil was polluted, and a water-containing layer at a position 6 m below the ground surface was polluted. In this water-containing layer, the tetrachloroethylene concentration was about 0.25 mg/L.
30 kg of stearylamine was gradually added over 6 days through a well in the polluted soil, and the tetrachloroethylene concentration, total carbon concentration and total nitrogen concentration after 90 days were analyzed from water collected from the well.

Row | Molecule | tetrachloroethylene concentration after 90 days [mg/L]
6 | CCCCCCCCCCCCCCCCCCN [stearylamine] | 0.08
